Assay results published in paper PMC3752336 (Neurochemical research, 2008).
pIC50: −log10 of the molar value.

Target: human M3 muscarinic acetylcholine receptor (hM3) (Homo sapiens, UniProt P20309)
Test: inhibition of [3H]NMS binding, intact CHO cells
Format: cell-based

Chain of human M3 muscarinic acetylcholine receptor (hM3) (P20309 whole entry): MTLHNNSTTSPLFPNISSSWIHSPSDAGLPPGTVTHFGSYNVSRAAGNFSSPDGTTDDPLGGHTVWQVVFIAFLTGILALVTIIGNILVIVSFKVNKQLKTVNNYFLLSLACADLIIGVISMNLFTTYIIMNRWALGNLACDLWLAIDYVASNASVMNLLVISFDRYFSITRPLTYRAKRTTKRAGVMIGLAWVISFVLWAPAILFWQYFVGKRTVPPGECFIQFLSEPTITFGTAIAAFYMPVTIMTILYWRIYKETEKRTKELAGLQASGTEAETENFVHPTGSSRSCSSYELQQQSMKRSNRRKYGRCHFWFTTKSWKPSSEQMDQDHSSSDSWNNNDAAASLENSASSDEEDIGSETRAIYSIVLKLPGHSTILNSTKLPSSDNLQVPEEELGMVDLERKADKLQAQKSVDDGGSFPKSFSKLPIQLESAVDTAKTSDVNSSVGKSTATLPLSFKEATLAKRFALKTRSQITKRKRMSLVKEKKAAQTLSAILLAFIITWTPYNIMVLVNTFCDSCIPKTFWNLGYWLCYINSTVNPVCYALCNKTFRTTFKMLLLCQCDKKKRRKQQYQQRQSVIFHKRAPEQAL

`CCCCCCOc1nsnc1C1=CCCN(C)C1` [Xanomeline] was tested. Which pIC50 did it give?
The pIC50 was 7.10.
